Results on four molecules are retold here after patent publication US10595532B2, “Ophthalmic contact lens solutions containing forms of vitamin B” (FXS Ventures, LLC, priority 2000, dated 2020).

Counter-ions that a name gives are not always drawn.

Assay type in all cases: cell-based
The test system of assay [1] is E. coli. Briefly: in vitro anti-microbial activity of vitamin B solutions in 0.5% Tris buffer with benzalkonium chloride (Example 4). As to conditions: for effect on the preservative (BAK): 0.5% vitamin B, 25 PPM BAK, E. coli 1 hour; for Log Reduction at 1 hr: E. coli, 0.5% Tris. As for the experimental part:
Formulations containing Dexpanthanol (Spectrum), Pyridoxine HCl (Spectrum) Thiamine HCl (Spectrum), and no Vitamin B control were prepared in a 0.5% Tris buffer containing 0.6% sodium chloride. The pH was adjusted with 1 N HCl to a final pH of 7.2. […] The in vitro anti-microbial activity of the solutions was determined by exposing E. coli to 10 ml of each solution at room temperature for 1 hour. Subsequently, an aliquot of each solution was serial diluted onto agar plates and incubated for 48 hours at elevated temperatures. At the conclusion of the incubation period the plates are examined for the development of colonies. The log reduction was determined based on a comparison to the inoculum control. The following table provides the results of the in vitro studies.

Assay [2] concerns E. coli. Put plainly: in vitro anti-microbial activity of vitamin B solutions in 0.5% Tris buffer with PHMB (Example 3). As to conditions: for effect on the preservative (PHMB): 0.5% vitamin B, 1 ppm PHMB, E. coli 1 hour; for Log Reduction at 1 hr: E. coli, room temperature, 0.5% Tris, 0.6% sodium chloride, pH 7.2, 1 ppm PHMB, vitamin B 0.5% or none. On the procedure: Formulations containing Dexpanthanol (Spectrum), Pyridoxine HCl (Spectrum) Thiamine HCl (Spectrum), and no Vitamin B control were prepared in a 0.5% Tris buffer containing 0.6% sodium chloride. The pH was adjusted with 1 N HCl to a final pH of 7.2. Polyhexamethylene biquanide (PHMB) at 0.0001% was added to each formulation. The in vitro anti-microbial activity of the solutions was determined by exposing E. coli to 10 ml of each solution at room temperature for 1 hours. Subsequently, an aliquot of each solution was serial diluted onto agar plates and incubated for 48 hours at elevated temperatures. At the conclusion of the incubation period the plates are examined for the development of colonies. The log reduction was determined based on a comparison to the inoculum control.

In assay [3] the test system is C. albicans. Put plainly: in vitro microbicidal activity of vitamin B solutions in 0.2% phosphate buffer preserved with PHMB (Example 1). The settings on record: PHMB 0.0001%; for activity against C. albicans as compared to the buffer control: 0.5% additive, 4 hours; for 4 Hour Log Reduction: C. albicans, room temperature, additive 0.5% in 0.2% phosphate buffer, isotonic, pH 7.2, vs inoculum control. As for the experimental part:
(§1) Formulations containing Pyridoxine HCl (Spectrum) and Thiamine HCl (Fisher) were prepared in a 0.2% phosphate buffer. The solutions were made isotonic with sodium chloride and preserved with polyhexamethylene biguanide at 0.0001%. The pH was adjusted to 7.2 with either 1 N sodium hydroxide or 1 N hydrochloric acid. The in vitro microbicidal activity of the solutions was determined by exposing C. albicans to 10 ml of each solution at room temperature for 4 hours. Subsequently, an aliquot of each solution was serial diluted onto agar plates and incubated for 48 hours at elevated temperatures. At the conclusion of the incubation period the plates are examined for the development of colonies. The log reduction was determined based on a comparison to the inoculum control.

Assay [4] relates to C. albicans. Briefly: in vitro microbicidal activity of dexpanthenol solutions in 0.25% Bis-Tris Propane buffer preserved with PHMB (Example 2). The settings on record: PHMB 0.5 ppm; for Log Reduction Calibicans 4 hour: C. albicans, room temperature, Bis-Tris Propane 0.25%, Cremophor 0.20%, Inositol 3.0%, Allantoin 0.1%, pH 7.2, dexpanthenol 0.1% or none. As for the experimental part: as §1, with “dexpanthenol” for “Pyridoxine HCl (Spectrum) and Thiamine HCl (Fisher)”, “0.25% Bis-Tris Propane” for “0.2% phosphate”, “biquanide” for “biguanide”, “0.00005%.” for “0.0001%.”, “control. The following table provides the results of the in vitro studies.” for “control.”

[5] abbreviates: room temperature, 0.6% sodium chloride, pH 7.2, 25 PPM BAK, vitamin B 0.5%.

As to `Cc1ncc(CO)c(CO)c1O.Cl` [Pyridoxine HCl], the “effect on the preservative (BAK)” value with E. coli [1] is given as “enhancement of the preservative”. In addition, the “Log Reduction at 1 hr” value in the assay with E. coli [1] (setting [5]) was over 5.12. Moreover, in the assay with E. coli [2], the “effect on the preservative (PHMB)” value is “enhancement of the preservative” and the “Log Reduction at 1 hr” value is 4.34. In the assay on C. albicans [3], the “activity against C. albicans as compared to the buffer control” value is reported as “improvement in the activity” and the “4 Hour Log Reduction” value came out at 2.0.
`Cc1ncc(C[n+]2csc(CCO)c2C)c(N)n1` [Thiamine HCl]: the “Log Reduction at 1 hr” value in the assay on E. coli [1] (setting [5]) was determined as 3.30. In the assay on E. coli [2], the “effect on the preservative (PHMB)” value is “enhancement of the preservative” and the “Log Reduction at 1 hr” value is given as 5.12. Besides, in the assay on C. albicans [3], the “activity against C. albicans as compared to the buffer control” value is reported as “improvement in the activity” and the “4 Hour Log Reduction” value turned out to be 1.0.
As for `CC(C)(CO)[C@@H](O)C(=O)NCCCO` [Dexpanthenol, dexpanthenol], in the assay with E. coli [1], the “effect on the preservative (BAK)” value is “enhancement of the preservative”. Moreover, the figures for the “Log Reduction at 1 hr” value with E. coli [1] (setting [5]) and in the assay with E. coli [2] were over 5.12 and 4.82, respectively. The “effect on the preservative (PHMB)” value with E. coli [2] was “enhancement of the preservative”. For the same molecule, in the assay on C. albicans [4], the “Log Reduction Calibicans 4 hour” value is 4.9. Besides, in the assay on C. albicans [4] (dexpanthenol 0.1%, C. albicans 4 hours), the “preservative efficacy over a solution with a preservative alone” value is reported as “improved preservative efficacy”.
polyhexamethylene biguanide [PHMB]: the “Log Reduction at 1 hr” value in the assay on E. coli [1] (no vitamin B, row printed with 1 ppm PHMB) is recorded as 0.42; in the assay on E. coli [2], 0.42. Also, the “Log Reduction Calibicans 4 hour” value in the assay on C. albicans [4] came out at 3.8.
